Data published in patent publication US20230085307A1, “PYRIDAZINONE COMPOUND AND HERBICIDE” (NISSAN CHEMICAL CORPORATION, priority 2019, published 2023).

Legend:
[1] = tested on: persian speedwell; assay: Test Example 4: herbicidal effect by soil treatment (Table 19, symbol R); format: in vivo, Persian speedwell (Veronica persica); details: amount of applied herbicide 320 g/ha
In short: (§1)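 Seeds were sown in sterilized diluvial soil and covered with about 1.5 cm of soil. An emulsion formulation diluted with water to a predetermined herbicide amount was sprayed evenly onto the soil surface. Plants grew in a greenhouse at 25° C. to 30° C., and the effect was scored three weeks after application using criteria from an earlier test.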

[2] = tested on: barnyard grass; assay: Test Example 5: herbicidal effect by foliage application, plastic box (Table 20, symbol H); format: in vivo, barnyard grass (Echinochloa crus-galli); details: amount of applied herbicide 320 g/ha; foliage application after 14-day growth; evaluated three weeks after application
In short: (§2)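 Plants sown in sterilized diluvial soil and grown 14 days in a greenhouse at 25° C to 30° C, then sprayed on the foliage with the compound's emulsion diluted in water to a predetermined herbicide amount. Injury to weeds and crops scored three weeks after application on a visual rating scale.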

[3] = tested on: lambsquarters; assay: Test Example 5: herbicidal effect by foliage application, plastic box (Table 20, symbol O); format: in vivo, lambsquarters (Chenopodium album); details: amount of applied herbicide 320 g/ha; foliage application after 14-day growth; evaluated three weeks after application
In short: as §2

[4] = tested on: windgrass; assay: Test Example 4: herbicidal effect by soil treatment (Table 19, symbol L); format: in vivo, windgrass (Apera spica-venti); details: amount of applied herbicide 320 g/ha
In short: as §1

[5] = tested on: redroot pigweed; assay: Test Example 4: herbicidal effect by soil treatment (Table 19, symbol N); format: in vivo, redroot pigweed (Amaranthus retroflexus); details: amount of applied herbicide 320 g/ha
In short: as §1

[6] = tested on: chickweed; assay: Test Example 5: herbicidal effect by foliage application, plastic box (Table 20, symbol P); format: in vivo, common chickweed (Stellaria media); details: amount of applied herbicide 320 g/ha; foliage application after 14-day growth; evaluated three weeks after application
In short: as §2

[7] = tested on: velvetleaf; assay: Test Example 4: herbicidal effect by soil treatment (Table 19, symbol M); format: in vivo, velvetleaf (Abutilon theophrasti); details: amount of applied herbicide 320 g/ha
In short: as §1

[8] = tested on: green foxtail; assay: Test Example 5: herbicidal effect by foliage application, plastic box (Table 20, symbol G); format: in vivo, green foxtail (Setaria viridis); details: amount of applied herbicide 320 g/ha; foliage application after 14-day growth; evaluated three weeks after application
In short: as §2

[9] = tested on: wild oat; assay: Test Example 5: herbicidal effect by foliage application, plastic box (Table 20, symbol I); format: in vivo, wild oat (Avena fatua); details: amount of applied herbicide 320 g/ha; foliage application after 14-day growth; evaluated three weeks after application
In short: as §2

[10] = tested on: Japanese bulrush; assay: Test Example 1: herbicidal activity, application before weed generation under submerged conditions (Table 16, symbol B); format: in vivo, Japanese bulrush (Schoenoplectus juncoides); details: amount of applied herbicide 320 g/ha
In short: (§3)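 Emulsion formulation, water-diluted to set dose, was put onto the flooded surface (4 cm depth, alluvial soil) the same day weeds were sown and 2.5-leaf rice transplanted. After 3 weeks at 25-30 °C under glass, each species was rated 0 (≤5% kill) to 5 (≥90% kill).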

[11] = tested on: wild oat; assay: Test Example 4: herbicidal effect by soil treatment (Table 19, symbol I); format: in vivo, wild oat (Avena fatua); details: amount of applied herbicide 320 g/ha
In short: as §1

[12] = tested on: southern crabgrass; assay: Test Example 5: herbicidal effect by foliage application, plastic box (Table 20, symbol F); format: in vivo, southern crabgrass (Digitaria ciliaris); details: amount of applied herbicide 320 g/ha; foliage application after 14-day growth; evaluated three weeks after application
In short: as §2

[13] = tested on: green foxtail; assay: Test Example 4: herbicidal effect by soil treatment (Table 19, symbol G); format: in vivo, green foxtail (Setaria viridis); details: amount of applied herbicide 320 g/ha
In short: as §1

[14] = tested on: persian speedwell; assay: Test Example 5: herbicidal effect by foliage application, plastic box (Table 20, symbol R); format: in vivo, Persian speedwell (Veronica persica); details: amount of applied herbicide 320 g/ha; foliage application after 14-day growth; evaluated three weeks after application
In short: as §2

[15] = tested on: lambsquarters; assay: Test Example 4: herbicidal effect by soil treatment (Table 19, symbol O); format: in vivo, lambsquarters (Chenopodium album); details: amount of applied herbicide 320 g/ha
In short: as §1

[16] = tested on: blackgrass; assay: Test Example 4: herbicidal effect by soil treatment (Table 19, symbol J); format: in vivo, blackgrass (Alopecurus myosuroides); details: amount of applied herbicide 320 g/ha
In short: as §1

[17] = tested on: late watergrass; assay: Test Example 1: herbicidal activity, application before weed generation under submerged conditions (Table 16, symbol A); format: in vivo, late watergrass (Echinochloa oryzicola); details: amount of applied herbicide 320 g/ha
In short: as §3

[18] = tested on: chickweed; assay: Test Example 4: herbicidal effect by soil treatment (Table 19, symbol P); format: in vivo, common chickweed (Stellaria media); details: amount of applied herbicide 320 g/ha
In short: as §1

[19] = tested on: Italian ryegrass; assay: Test Example 5: herbicidal effect by foliage application, plastic box (Table 20, symbol K); format: in vivo, Italian ryegrass (Lolium multiflorum); details: amount of applied herbicide 320 g/ha; foliage application after 14-day growth; evaluated three weeks after application
In short: as §2

[20] = tested on: oval-leafed pondweed; assay: Test Example 1: herbicidal activity, application before weed generation under submerged conditions (Table 16, symbol C); format: in vivo, oval-leafed pondweed (Monochoria vaginalis); details: amount of applied herbicide 320 g/ha
In short: as §3

[21] = tested on: windgrass; assay: Test Example 5: herbicidal effect by foliage application, plastic box (Table 20, symbol L); format: in vivo, windgrass (Apera spica-venti); details: amount of applied herbicide 320 g/ha; foliage application after 14-day growth; evaluated three weeks after application
In short: as §2

[22] = tested on: Italian ryegrass; assay: Test Example 4: herbicidal effect by soil treatment (Table 19, symbol K); format: in vivo, Italian ryegrass (Lolium multiflorum); details: amount of applied herbicide 320 g/ha
In short: as §1

[23] = tested on: redroot pigweed; assay: Test Example 5: herbicidal effect by foliage application, plastic box (Table 20, symbol N); format: in vivo, redroot pigweed (Amaranthus retroflexus); details: amount of applied herbicide 320 g/ha; foliage application after 14-day growth; evaluated three weeks after application
In short: as §2

[24] = tested on: Chinese sprangletop; assay: Test Example 3: herbicidal effect by foliage application, Wagner pot (Table 18, symbol D); format: in vivo, chinese sprangletop (Leptochloa chinensis); details: 320 g/ha
In short: (§4)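 Plants were sown in alluvial soil held under 0.1–0.5 cm standing water and grown 14 days in a greenhouse at 25–30 °C. An emulsifiable formulation, water-diluted to the set dose, was then sprayed onto the foliage, and effects were scored three weeks later using previously defined criteria.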

[25] = tested on: barnyard grass; assay: Test Example 4: herbicidal effect by soil treatment (Table 19, symbol H); format: in vivo, barnyard grass (Echinochloa crus-galli); details: amount of applied herbicide 320 g/ha
In short: as §1

[26] = tested on: velvetleaf; assay: Test Example 5: herbicidal effect by foliage application, plastic box (Table 20, symbol M); format: in vivo, velvetleaf (Abutilon theophrasti); details: amount of applied herbicide 320 g/ha; foliage application after 14-day growth; evaluated three weeks after application
In short: as §2

[27] = tested on: rice flat sedge; assay: Test Example 3: herbicidal effect by foliage application, Wagner pot (Table 18, symbol E); format: in vivo, rice flat sedge (Cyperus iria); details: 320 g/ha
In short: as §4

[28] = tested on: southern crabgrass; assay: Test Example 4: herbicidal effect by soil treatment (Table 19, symbol F); format: in vivo, southern crabgrass (Digitaria ciliaris); details: amount of applied herbicide 320 g/ha
In short: as §1

[29] = tested on: blackgrass; assay: Test Example 5: herbicidal effect by foliage application, plastic box (Table 20, symbol J); format: in vivo, blackgrass (Alopecurus myosuroides); details: amount of applied herbicide 320 g/ha; foliage application after 14-day growth; evaluated three weeks after application
In short: as §2

[30] = tested on: barnyard grass; assay: Test Example 3: herbicidal effect by foliage application, Wagner pot (Table 18, symbol H); format: in vivo, barnyard grass (Echinochloa crus-galli); details: 320 g/ha
In short: as §4

## CCOc1cccc(-c2sc3c(C)cccc3c2-c2c(O)c(C)nn(C)c2=O)c1 [4-114]
[1]
  Herbicidal effect by soil treatment, R: persian speedwell: 4 (Herbicidal rate of 70% or more and less than 90%)
[2]
  Herbicidal effect by foliage application, H: barnyard grass: 0 (Herbicidal rate of 5% or less (almost no effect))
[3]
  Herbicidal effect by foliage application, O: lambsquarters: 3 (Herbicidal rate of 40% or more and less than 70%)
[4]
  Herbicidal effect by soil treatment, L: windgrass: 0 (Herbicidal rate of 5% or less (almost no effect))
[5]
  Herbicidal effect by soil treatment, N: redroot pigweed: 3 (Herbicidal rate of 40% or more and less than 70%)
[6]
  Herbicidal effect by foliage application, P: chickweed: 5 (Herbicidal rate of 90% or more (almost completely withered))
[7]
  Herbicidal effect by soil treatment, M: velvetleaf: 0 (Herbicidal rate of 5% or less (almost no effect))
[8]
  Herbicidal effect by foliage application, G: green foxtail: 4 (Herbicidal rate of 70% or more and less than 90%)
[9]
  Herbicidal effect by foliage application, I: wild oat: 0 (Herbicidal rate of 5% or less (almost no effect))
[10]
  Herbicidal effect, B: Japanese bulrush: 0 (Herbicidal rate of 5% or less (almost no effect))
[11]
  Herbicidal effect by soil treatment, I: wild oat: 0 (Herbicidal rate of 5% or less (almost no effect))
[12]
  Herbicidal effect by foliage application, F: southern crabgrass: 4 (Herbicidal rate of 70% or more and less than 90%)
[13]
  Herbicidal effect by soil treatment, G: green foxtail: 4 (Herbicidal rate of 70% or more and less than 90%)
[14]
  Herbicidal effect by foliage application, R: persian speedwell: 5 (Herbicidal rate of 90% or more (almost completely withered))
[15]
  Herbicidal effect by soil treatment, O: lambsquarters: 4 (Herbicidal rate of 70% or more and less than 90%)
[16]
  Herbicidal effect by soil treatment, J: blackgrass: 0 (Herbicidal rate of 5% or less (almost no effect))
[17]
  Herbicidal effect, A: late watergrass: 3 (Herbicidal rate of 40% or more and less than 70%)
[18]
  Herbicidal effect by soil treatment, P: chickweed: 3 (Herbicidal rate of 40% or more and less than 70%)
[19]
  Herbicidal effect by foliage application, K: Italian ryegrass: 5 (Herbicidal rate of 90% or more (almost completely withered))
[20]
  Herbicidal effect, C: oval-leafed pondweed: 0 (Herbicidal rate of 5% or less (almost no effect))
[21]
  Herbicidal effect by foliage application, L: windgrass: 1 (Herbicidal rate of 5% or more and less than 20%)
[22]
  Herbicidal effect by soil treatment, K: Italian ryegrass: 4 (Herbicidal rate of 70% or more and less than 90%)
[23]
  Herbicidal effect by foliage application, N: redroot pigweed: 4 (Herbicidal rate of 70% or more and less than 90%)
[24]
  herbicidal effect on Chinese sprangletop (D): 3 (Herbicidal rate of 40% or more and less than 70%)
[25]
  Herbicidal effect by soil treatment, H: barnyard grass: 1 (Herbicidal rate of 5% or more and less than 20%)
[26]
  Herbicidal effect by foliage application, M: velvetleaf: 1 (Herbicidal rate of 5% or more and less than 20%)
[27]
  herbicidal effect on rice flat sedge (E): 4 (Herbicidal rate of 70% or more and less than 90%)
[28]
  Herbicidal effect by soil treatment, F: southern crabgrass: 4 (Herbicidal rate of 70% or more and less than 90%)
[29]
  Herbicidal effect by foliage application, J: blackgrass: 1 (Herbicidal rate of 5% or more and less than 20%)
[30]
  herbicidal effect on barnyard grass (H): 4 (Herbicidal rate of 70% or more and less than 90%)
